In brackets after ≈: the same amount, converted by molar mass. Where only a bound is given, the exact number is not on record here.

Conditions in one series: not given
Usually logP stands for the decadic logarithm of the partition coefficient of the neutral form, usually between octanol and water. Low readings indicate a more hydrophilic compound, high ones a more lipophilic compound. For the molecule `CC1COCc2cc3c(cc21)C(C)(C)C(C)C3(C)C` (stereo not given), the logP came out at 5.9.

In turn, `CCCCCCOCCO` registered a logP of 1.86.

Take `NS(=O)(=O)c1cc2c(cc1Cl)N=C(CSCc1ccccc1)NS2(=O)=O`: the logP came out at 1.73. This logP and that of the molecule before are within 0.2 log units of each other. Same read-out and setting: the result for `CN(C)c1ncc(-c2ccncc2)cc1C#N` reads 2.13; that for `c1ccc2c(c1)Cc1cc3ccccc3cc1-2`, 5.77. Regarding `O=C1CCC(c2cccnc2)N1` (stereo not given), the lipophilicity (logP) was -0.3. Still for that read-out and setting: the value for `CC(C)(C)c1cccc(OP(=O)(Oc2ccccc2)Oc2ccccc2)c1` was 5.12. The same measure, in the same setting: the result for `CCCCCCNC(=S)NC` reads 2.31; that for `CN(C)CCc1ccccn1`, 1.12. The same measure, in the same setting: the result for `CCN(C)N=O` reads 0.04; that for `CC(=O)Nc1ccc2nc(S(N)(=O)=O)sc2c1`, 0.86; that for `CC(=O)Oc1ccc(N(C)C(=O)C(Cl)Cl)cc1`, 1.56. In turn, `CC(O)CNc1ccccc1C(N)=O` (stereo not given) registered a lipophilicity (logP) of 0.62.

`COC(=O)C1=C(C)NC(C)=C(C(=O)O[C@@H]2CCCN(Cc3ccccc3)C2)[C@@H]1c1cccc([N+](=O)[O-])c1` showed a logP of 4.61. On the same count and under the same terms, the result for `CC=CCCCCC` reads 4.51; that for `CCCN(CC1CC1)c1c([N+](=O)[O-])cc(C(F)(F)F)cc1[N+](=O)[O-]`, 5.58; that for `COc1ccc(C#N)cc1`, 1.7. Consider `COc1ccc(S(=O)(=O)c2coc(S(N)(=O)=O)c2)cc1`, for which the logP is 1.17. Still for that read-out and setting: the value for `O=c1ccn(C2OC(CO)C(O)C2O)c(=O)n1Cc1ccccc1` (stereo not given) was 0.33; that for `O=C(O)CNCP(=O)(O)O` was -3.4. On the same count and under the same terms, the value for `COc1ccc(CNC(=O)C(=O)c2c[nH]c3ccc([N+](=O)[O-])cc23)cc1` was 2.17; that for `O=C1OC(=Nc2ccc(Cl)cc2)C2=C1CCCC2` was 3.84.

Broadly, the solubility is how much of the substance goes into solution per volume. The low end stands for a poorly soluble substance, the high end for a readily soluble substance. With `ClC1=C(Cl)C(Cl)(Cl)C(Cl)(Cl)C1(Cl)Cl`, the solubility was determined as 0.000291 mM (≈ 0.1 µg/mL). This counts as sub-micromolar. As to `Clc1ccc2cccc(Cl)c2c1`, the logP stood at 4.56.

As to `CCCCC1CO1` (stereo not given), the logP came out at 1.95.

On to `CC(C)Nc1nc(Cl)nc(NCCO)n1`, for which the logP was 0.78. For the molecule `COc1ccccc1C=O`, the logP was determined as 1.72. The same measure, in the same setting: the result for `NS(=O)(=O)c1nn2c(=Nc3ccc(F)cc3)snc2s1` reads 2.81; that for `CCCCCCC(C)O` (stereo not given), 2.9. As for `CC(=O)OCCN(CCC#N)c1ccc(N=Nc2nc3ccc([N+](=O)[O-])cc3s2)cc1`, the logP was determined as 4.08 and the solubility amounted to 0.00157 mM (≈ 0.69 µg/mL). `CCOC(=O)OCn1ncc2c(O)ncnc21` had a logP of 0.21. On the same count and under the same terms, the value for `CCOc1ccc([N+](=O)[O-])cc1NC(=O)CC` was 1.85; that for `O=C(O)C1CCN1CC(O)Cn1ccnc1` (stereo not given) was -2.02. On the same count and under the same terms, the result for `COC(=O)C1CC(=O)N(C)C1` (stereo not given) reads -0.74. Take `CCCCC(OC(Cc1ccccc1)C(=O)N1CCC(OCOC)CC1)C(=O)NC(CC1CCCCC1)C(O)CC(C(=O)NCCNc1n[nH]c(N)n1)C(C)C` (stereo not given): the lipophilicity (logP) amounted to 4. `N#Cc1cc(-c2ccncc2)cnc1N1CCCC1` gave a logP of 2.95. Take `O=C(CCl)N1CCOCC1`: the logP was -0.6. Same read-out and setting: the result for `N#Cc1cccc(N=C=S)c1` reads 3.13.

Molecule `CC(=O)O[C@@H]1C[C@H]2CC[C@]1(C)C2(C)C` had a log partition coefficient (logP) of 4.3.

Consider `COCCNCc1cc2cc(S(N)(=O)=O)sc2s1`, for which the logP worked out at 0.32. Still for that read-out and setting: the result for `ClC=C1C2CC(C(Cl)C2Cl)C1(CCl)C(Cl)Cl` (stereo not given) reads 5.45; that for `Cc1ccc(C(=O)CS(=O)(=O)c2ccc(C)cc2)cc1`, 3.3; that for `C=CC(=O)OCCOC`, 0.56. Still for that read-out and setting: the value for `COc1ccc(Cl)c(Cl)c1Cl` was 3.74; that for `COC(=O)[C@@H](N)Cc1ccc(O)cc1` was 0.29; that for `N#CC(C#N)=Cc1ccco1` was 1.4. As for `Cc1c(O)c(=O)ccn1CCO`, the logP is -1.1. Take `ON=C1CCCCC1`: the logP was 0.84. On to `S=C=Nc1ccc(Cl)cc1`, for which the log partition coefficient (logP) was 3.91. The same measure, in the same setting: the result for `NS(=O)(=O)c1nc2ccc([N+](=O)[O-])cc2s1` reads 1.36; that for `CC(=O)N[C@@H](C)C(=O)N[C@@H](C)C(N)=O`, -2; that for `CCNC(=O)CNC(=O)c1ccccc1`, 0.58. `COc1c(Cl)cc(Cl)c(Cl)c1Cl`: the logP worked out at 4.75. Consider `O=[N+]([O-])c1cccc(O)c1`, for which the solubility is 97.1 mM (≈ 13500 µg/mL). For the molecule `O=P(N1CCCC1)(N1CCCC1)N1CCCC1`, the logP turned out to be 1.67.

For the molecule `CCC1(C)CC(=O)NC1=O` (stereo not given), the logP is 0.38. With `Cn1c(CC(=O)O)cnc1C(=O)c1ccc([N+](=O)[O-])cc1`, the logP is 0.86.

Consider `Cc1cc(C)c(C#[N+][O-])c(C)c1`, for which the log partition coefficient (logP) was found to be 3.21. `O=C(O)c1cccnc1Nc1cccc(C(F)(F)F)c1` showed a logP of 4.43. On the same count and under the same terms, the result for `CC(C)/N=c1/cc2n(-c3ccc(Cl)cc3)c3ccccc3nc-2cc1Nc1ccc(Cl)cc1` reads 7.66; that for `CCCCCCCCCCOC(=O)c1ccccc1C(=O)OCCCCCCCCCC`, 9.05; that for `COC1=CC(=O)C=C(OC)C1=O`, -0.06. The same measure, in the same setting: the value for `Cc1ccc(-c2ccccc2)cc1` was 4.63; that for `CCCCCCCCC(C)=O` was 3.73. Same read-out and setting: the result for `COc1ccc(N=c2snc3sc(S(N)(=O)=O)nn23)cc1` reads 2.93. In turn, `CCCCCOC(=O)c1ccccc1C(=O)OCCCCC` had a logP of 5.62. As for `CC(=O)Oc1ccc(OCCN(C)C)cc1C`, the log partition coefficient (logP) came to 1.64. In turn, `CCN(CC)P(=O)(N(CC)CC)N1CCCC1` yielded a log partition coefficient (logP) of 2.39.

In turn, `C=CC(N)CCC(=O)O` (stereo not given) registered a lipophilicity (logP) of -2.16. The same measure, in the same setting: the value for `CC(C)(C)C1CCCCC1` was 5.04.

In turn, `NS(=O)(=O)c1cccc2ccccc12` registered a logP of 1.55. Same read-out and setting: the value for `CCNC(=O)CCC(NS(=O)(=O)c1ccccc1)C(=O)O` (stereo not given) was 0.15; that for `CN(C)C(=O)COC(=O)c1ccccc1O` was 1.21.

Consider `Clc1cc(Cl)c2[nH]c3c(Cl)cc(Cl)cc3c2c1`, for which the lipophilicity (logP) is 5.75. `CN(C)c1ccc(C=NNC(=N)N)cc1` registered a lipophilicity (logP) of 0.28. `Cc1cc(Cc2cc(Cl)ccc2Cl)c(Cl)cc1Cl` showed a logP of 7.53. Still for that read-out and setting: the value for `CC(C)c1ccc(C=[N+]([O-])c2ccccc2)cc1` was 3.37.

In turn, `NC(N)=S` yielded a lipophilicity (logP) of -1.08. With `CCCCCCN1CC(C(=O)O)CC1=O` (stereo not given), the logP came out at 1.6. For `CN(C)c1ccc2cc3ccc(N(C)C)cc3nc2c1`, the solubility was determined as 2.64 mM (≈ 700 µg/mL). That is a millimolar value. As to `O=[N+]([O-])c1ccc2nc[nH]c2c1`, the log partition coefficient (logP) came out at 1.5. For `O=C(CS(=O)(=O)c1ccccc1)c1ccc(Cl)cc1`, the logP came out at 2.69. As for `CCCCCNC(=O)CCC(NS(=O)(=O)c1ccccc1)C(=O)O` (stereo not given), the logP was 0.03.

Still in this series, the particulars now being: 20 °C.
Molecule `CCN(C)N=O` returned a solubility of 3400 mM (≈ 300000 µg/mL). Same read-out and setting: the value for `CCOC(=O)C(O)(c1ccc(Cl)cc1)c1ccc(Cl)cc1` was 0.0351 mM (≈ 11.4 µg/mL). With `C=CCOC(C)=O`, the solubility turned out to be 280 mM (≈ 28000 µg/mL).

The same series, now with this note: 23 °C.
The molecule `Clc1ccc(Cl)c(-c2ccc(Cl)c(Cl)c2)c1` had a solubility of 0.000136 mM (≈ 0.0397 µg/mL).

The series is the same for the next values; noted with them: 23.0 °C.
In the case of `O=C/C=C/c1ccccc1`, the log10 OH rate constant (cm³/molecule/s) is -10.3. Molecule `O=C1C=CC(=O)O1` displayed a log10 OH rate constant (cm³/molecule/s) of -11.8. Same read-out and setting: the result for `COC(OC)OC` reads -11.2; that for `CCCCCC=O`, -10.5; that for `CC1=CC[C@@H]2[C@H]3[C@@H](C(C)C)CC[C@]2(C)[C@@H]13`, -10. Still for that read-out and setting: the value for `CCC/C=C/C=O` was -10.4. On to `C=C1CCC=C(C)CC[C@@H]2[C@@H]1CC2(C)C`, for which the log10 OH rate constant (cm³/molecule/s) was -9.7.

Regarding `CC(=O)CCC=C(C)C`, the log10 OH rate constant (cm³/molecule/s) is -9.8.

Still in this series, the particulars now being: 24 °C.
For `CN(Cc1ccccc1)N=O`, the solubility stood at 30 mM (≈ 4510 µg/mL). This counts as millimolar. Same read-out and setting: the value for `CCCCN(CCCC)N=O` was 8.03 mM (≈ 1270 µg/mL).

Staying with this series, now noted: 24.0 °C.
For `C[Si]1(C)O[Si](C)(C)O[Si](C)(C)O1`, the log10 OH rate constant (cm³/molecule/s) was -12.3.

Staying with this series, now noted: 25 °C.
In turn, `CC1COCc2cc3c(cc21)C(C)(C)C(C)C3(C)C` (stereo not given) displayed a solubility of 0.00677 mM (≈ 1.75 µg/mL). This counts as single-digit micromolar. Same read-out and setting: the result for `Cc1ncc(CO)c(CN)c1O` reads 2970 mM (≈ 500000 µg/mL); that for `Oc1ccc(Cl)c2cccnc12`, 0.106 mM (≈ 19 µg/mL). `CCOC(=O)COc1ccc(Cl)cc1` yielded a solubility of 3.8 mM (≈ 815 µg/mL).

For `C=Cc1cccc(C)c1`, the solubility worked out at 0.753 mM (≈ 89 µg/mL). Still for that read-out and setting: the result for `c1ccc2c(c1)ccc1ccc3ccccc3c12` reads 1.51e-05 mM (≈ 0.00345 µg/mL); that for `O=C(O)c1ccc(C(=O)O)c(C(=O)O)c1`, 99.9 mM (≈ 21000 µg/mL). Same read-out and setting: the value for `ClCC(Cl)CCl` was 11.9 mM (≈ 1750 µg/mL); that for `CCCCCCCCCCCCCCC` was 3.58e-07 mM (≈ 7.6e-05 µg/mL); that for `CCCCCN(CCCCC)CCCCC` was 0.0928 mM (≈ 21.1 µg/mL). The same measure, in the same setting: the value for `CCCN(CCC)c1c([N+](=O)[O-])cc(C(C)C)cc1[N+](=O)[O-]` was 0.000339 mM (≈ 0.105 µg/mL); that for `CCCCC(CC)COC(=O)c1ccccc1C(=O)OCC(CC)CCCC` (stereo not given) was 0.000108 mM (≈ 0.042 µg/mL); that for `CCC(Cl)(Cl)Cl` was 12.9 mM (≈ 1900 µg/mL). Regarding `CCCCOP(=O)(OCCCC)Oc1ccccc1`, the solubility stood at 0.335 mM (≈ 96 µg/mL). In the case of `FC(F)(Cl)Cl`, the solubility worked out at 2.32 mM (≈ 280 µg/mL).

In turn, `ClC(Cl)=C(Cl)C(Cl)=C(Cl)Cl` yielded a solubility of 0.0123 mM (≈ 3.2 µg/mL).

Staying with this series, now noted: 25.0 °C.
Regarding `CCOC(=O)NC`, the log10 OH rate constant (cm³/molecule/s) is -11.1. Still for that read-out and setting: the result for `CCCN(CCC)C(=O)SCC` reads -10.5. The same measure, in the same setting: the result for `CCC(C)(C)OC` reads -11.3.

Turning to `CC(C)CCO`, the log10 OH rate constant (cm³/molecule/s) is -10.9.

As to `C=CCOC(C)=O`, the log10 OH rate constant (cm³/molecule/s) was -10.6. The same measure, in the same setting: the value for `CC(=O)O[C@@H]1CC2CCC1(C)C2(C)C` (stereo not given in full) was -10.9; that for `CCCCOCC=O` was -10.7.

Molecule `O=C/C=C/C=C/C=O` returned a log10 OH rate constant (cm³/molecule/s) of -10. `ClCBr` had a log10 OH rate constant (cm³/molecule/s) of -13.1. The same measure, in the same setting: the result for `FC(F)CC(F)(F)F` reads -14.1; that for `OCC(F)(F)C(F)(F)C(F)(F)F`, -13. On the same count and under the same terms, the result for `O=CCCl` reads -11.5; that for `Clc1c(Cl)c(Cl)c(Cl)c(Cl)c1Cl`, -13.6; that for `FC(F)(F)C(F)(F)N(C(F)(F)C(F)(F)F)C(F)(F)C(F)(F)F`, less than -15.2.

The same series, now with this note: 27.0 °C.
Regarding `Cc1cccc(O)c1O`, the log10 OH rate constant (cm³/molecule/s) was -9.69.

(Values after the OPERA property sets (Mansouri et al. 2018).)
